Test [1] concerns the target T1, Corticotropin-releasing factor receptor 2/Corticotropin-releasing factor-binding protein (Homo sapiens, UniProt P24387+Q13324).
T1 sequence (Q13324 whole entry): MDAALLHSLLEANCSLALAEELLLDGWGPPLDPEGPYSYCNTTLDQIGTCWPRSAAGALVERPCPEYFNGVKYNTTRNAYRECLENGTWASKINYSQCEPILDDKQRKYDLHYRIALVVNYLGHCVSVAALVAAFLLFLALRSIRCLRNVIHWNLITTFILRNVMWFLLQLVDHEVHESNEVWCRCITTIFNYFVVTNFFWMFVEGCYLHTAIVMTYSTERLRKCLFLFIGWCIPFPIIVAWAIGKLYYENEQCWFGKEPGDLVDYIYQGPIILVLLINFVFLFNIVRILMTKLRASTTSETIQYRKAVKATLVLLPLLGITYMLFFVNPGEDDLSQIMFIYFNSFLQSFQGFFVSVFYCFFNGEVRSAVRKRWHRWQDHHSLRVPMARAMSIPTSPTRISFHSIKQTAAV
T1 sequence (P24387 whole entry): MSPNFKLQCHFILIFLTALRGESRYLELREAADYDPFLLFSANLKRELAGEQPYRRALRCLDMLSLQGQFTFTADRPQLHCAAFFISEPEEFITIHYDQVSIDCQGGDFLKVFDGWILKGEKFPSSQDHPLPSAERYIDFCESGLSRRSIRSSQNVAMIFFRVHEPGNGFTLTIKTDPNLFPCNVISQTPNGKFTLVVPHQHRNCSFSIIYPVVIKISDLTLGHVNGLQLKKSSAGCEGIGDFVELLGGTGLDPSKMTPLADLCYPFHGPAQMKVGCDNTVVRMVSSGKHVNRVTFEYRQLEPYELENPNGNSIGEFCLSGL
The test can be described thus: Dose Response confirmation of uHTS hits for small molecule antagonists of the CRF-binding protein and CRF-R2 receptor complex. The note with it: read-out: IC50_Mean. Type of test: functional.

Test [2] concerns the target T1, Corticotropin-releasing factor receptor 2/Corticotropin-releasing factor-binding protein. The test can be described thus: activators of CRF receptor 2 with binding protein – uHTS hits, confirmation (AID 602473). Type of test: functional. Conditions: read-out: EC50_Mean.
Test [3] deals with T2, Zinc finger protein mex-5 (Caenorhabditis elegans, UniProt Q9XUB2).
T2 sequence (Q9XUB2 whole entry): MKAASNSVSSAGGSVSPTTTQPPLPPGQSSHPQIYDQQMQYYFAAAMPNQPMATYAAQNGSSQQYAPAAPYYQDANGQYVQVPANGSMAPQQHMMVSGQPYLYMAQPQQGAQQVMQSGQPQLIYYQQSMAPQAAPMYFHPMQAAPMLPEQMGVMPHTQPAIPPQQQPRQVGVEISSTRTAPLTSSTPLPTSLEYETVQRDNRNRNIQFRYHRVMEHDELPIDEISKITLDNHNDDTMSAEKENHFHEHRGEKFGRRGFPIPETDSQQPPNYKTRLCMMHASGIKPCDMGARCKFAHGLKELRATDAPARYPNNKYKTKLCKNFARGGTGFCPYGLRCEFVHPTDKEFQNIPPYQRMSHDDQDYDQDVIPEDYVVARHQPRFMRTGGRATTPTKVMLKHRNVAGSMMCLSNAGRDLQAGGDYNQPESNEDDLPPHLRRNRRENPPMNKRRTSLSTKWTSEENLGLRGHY
The test can be described thus: potency of MEX-5 RNA-binding blockers – biochemical, C. elegans, fluorescence polarization, dose response (AID 1960). For orientation: Fluorescence polarisation rises when a labelled molecule tumbles more slowly, as on binding a larger partner.

Test [4] concerns the target T3, RNA-binding protein pos-1 (Caenorhabditis elegans, UniProt G5EF15).
T3 sequence (G5EF15 whole entry): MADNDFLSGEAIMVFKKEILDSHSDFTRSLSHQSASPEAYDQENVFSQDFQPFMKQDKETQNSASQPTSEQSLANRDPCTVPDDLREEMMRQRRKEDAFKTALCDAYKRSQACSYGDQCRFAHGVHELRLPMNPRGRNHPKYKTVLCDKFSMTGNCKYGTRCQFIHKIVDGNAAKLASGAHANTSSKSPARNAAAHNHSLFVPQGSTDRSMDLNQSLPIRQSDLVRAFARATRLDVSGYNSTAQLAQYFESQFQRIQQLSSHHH
The test can be described thus: disruptors of C. elegans POS-1 RNA interaction – biochemical, fluorescence polarization, dose response (AID 1964).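 Further: purified POS-1 fused to maltose binding protein made in E. coli; potency of compounds blocking POS-1 binding to fluorescent RNA.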

Another test concerns H4. The test can be described thus: Luminescence Cell-Based Dose Response HTS to Identify Activators of 5'UTR Stem-Loop Driven Prion Protein mRNA Translation in H4 Neuroglioblastoma Cells. [Related pubchem assays: 1829 (Project Summary), 1814 (Primary HTS)]. Format: functional. The note with it: Homo sapiens.
A short description of test [5]: Luminescence Cell-Based Dose Response HTS to Identify Activators of Luciferase Translation or Activity in H4 […] Cells. [Related pubchem assays: 1829 (Project Summary), 1814 (Primary HTS)]. Format: functional.
The nature of test [6]: Luminescence Cell-Based Dose Confirmation HTS to Identify Activators of 5'UTR Stem-Loop Driven Alpha-Synuclein mRNA Translation in H4 Neuroglioblastoma Cells. [Related pubchem assays: 1829 (Project Summary), 1814 (Primary HTS)]. Type of test: functional.
The next test deals with INS1. The test can be described thus: INS-1E survival protection against cytokine death – cell-based, luminescence, retest, dose response (AID 449756).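 Further: cell death triggered by IL-1 beta plus TNF-alpha plus IFN-gamma mixture; protective hits raise ATP signal compared with cytokine alone wells.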 Format: functional. The note with it: Rattus norvegicus.
The target in test [7] is FAD-linked sulfhydryl oxidase ALR (Homo sapiens, UniProt P55789). The test can be described thus: ALR-catalysed DTT oxidation blockers – biochemical, H2O2 detection, luminescence, cherry-pick, dose response (AID 493248).
Test [8] can be described thus: NIH3T3 cell viability loss – ATP luminescence, mouse fibroblasts, counter-screen, dose response (AID 2010).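 Further: cells exposed to compound for about 90 hours before reading.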 Format: functional, cell-based.
Test [9] in a line: Trypanosoma cruzi growth suppression in host cells – NIH3T3 host cells, beta-gal luminescence, confirmation (AID 2044).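 Further: intracellular parasites grown in NIH/3T3 mouse fibroblasts as host cells; luminescent beta-galactosidase reporter signal from transgenic T. cruzi replicating inside host cells; inhibitors lower the luminescence signal.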 Type of test: functional, cell-based.
Test [10] has as its target T4, Rac GTPase-activating protein 1 (Homo sapiens, UniProt Q9H0H5).
T4 sequence (Q9H0H5 whole entry): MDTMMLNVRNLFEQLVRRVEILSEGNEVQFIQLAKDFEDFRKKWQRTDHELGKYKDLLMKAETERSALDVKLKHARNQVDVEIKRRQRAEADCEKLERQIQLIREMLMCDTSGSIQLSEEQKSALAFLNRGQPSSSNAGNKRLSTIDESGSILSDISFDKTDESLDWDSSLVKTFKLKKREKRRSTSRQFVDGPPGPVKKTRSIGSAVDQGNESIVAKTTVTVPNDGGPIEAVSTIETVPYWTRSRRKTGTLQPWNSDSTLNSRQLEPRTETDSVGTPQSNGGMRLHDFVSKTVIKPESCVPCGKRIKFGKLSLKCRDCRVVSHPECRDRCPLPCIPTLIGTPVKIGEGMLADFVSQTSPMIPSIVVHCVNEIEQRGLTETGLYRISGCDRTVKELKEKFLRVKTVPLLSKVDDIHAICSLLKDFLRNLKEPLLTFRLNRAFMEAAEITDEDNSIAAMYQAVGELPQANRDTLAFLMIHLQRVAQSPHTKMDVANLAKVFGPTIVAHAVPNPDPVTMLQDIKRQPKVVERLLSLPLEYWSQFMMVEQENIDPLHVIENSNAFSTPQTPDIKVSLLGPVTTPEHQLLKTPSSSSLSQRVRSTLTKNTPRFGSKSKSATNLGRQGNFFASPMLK
The test can be described thus: blockers of MgcRacGAP-driven Rac1 GTP hydrolysis – biochemical, ADP Hunter fluorescence, primary and confirmatory, confirmation (AID 624330). Type of test: functional.

The source made the active and inactive calls. For most assays here, no stated cut-off is given here; in the data, actives have a measured EC50 and inactives only a lower limit.

In ChEMBL document CHEMBL1201862, “PubChem BioAssay data set” (2004) one finds IC50, EC50 and AC50 data, which are given here for 32 compounds.

Usually AC50 stands for the concentration giving half of the maximal activity seen.

Chain of FAD-linked sulfhydryl oxidase ALR (P55789 whole entry): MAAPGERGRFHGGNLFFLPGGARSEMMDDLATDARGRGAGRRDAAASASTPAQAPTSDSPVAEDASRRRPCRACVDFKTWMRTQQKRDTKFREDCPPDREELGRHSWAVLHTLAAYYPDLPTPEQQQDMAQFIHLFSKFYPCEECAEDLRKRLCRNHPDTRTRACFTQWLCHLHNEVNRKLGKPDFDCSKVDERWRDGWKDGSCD

On to `CN(Cc1cccc(Cl)c1)C(=O)C1CCC(=O)N(C2CC2)C1` (stereo not given), for which the IC50 in [1] was > 47.1 µM (inactive). Moreover, in [2], the EC50 was > 53 µM (inactive).
For the compound `CC(C)(C)OC(=O)NCCCC1=CC2=CC(=O)C(C)(OC(=O)C3CCCC3)C(=O)C2=CO1` (stereo not given), the values for the EC50 in test [3] and in [4] were 18.7 µM (active) and 18.8 µM (active), respectively.
Consider `O=C(O)C1CCN(C(=O)OCc2ccccc2)CC1`, for which the EC50 in the test on H4 is 6.56 µM (active); in [5] it was 87.1 µM (active); in [6] it was 0.602 µM (active).
For `Cc1cccc(-n2c(N)cc(=O)[nH]c2=S)c1`, in that order: > 120 µM (not active), > 120 µM (not active) and > 120 µM (not active).
On to `O=Nc1c(-c2ccccc2)cc2ccccn12`, for which the EC50 in the test with H4 is 27.4 µM (active); in test [5], 12.1 µM (active); in [6], 13.6 µM (active).
As for `CCOCCCNc1nc2nc3ccc(C)cn3c(=O)c2cc1C(=O)NCC1CCCO1` (stereo not given), the EC50 in test [3] and in test [4] was > 300 µM (not active) each time.
In the case of `O=[N+]([O-])c1cccc(-c2cn3nc(-c4ccccc4)c(-c4ccccc4)nc3n2)c1`, the EC50 in test [3] is 99 µM (active); in test [4], > 300 µM (not active). For the same compound, in the test with INS1, the half-maximal activity concentration (AC50) is 11 µM (active).
Turning to `COc1ccc2c(-c3ccccc3)cc(SCC(N)=O)nc2c1`, the EC50 in test [3] and in [4] was > 300 µM (not active) in each case.
`O=C(NCc1ccccn1)C1Nc2ccc(OC(F)(F)F)cc2C2C=CCC12` (stereo not given): the EC50 in test [3] and in test [4] was > 300 µM (not active) each time.
For the compound `O=C(C[n+]1cc(-c2ccc(F)cc2)n2c1CCC2)N1c2ccccc2Sc2ccccc21`, the EC50 in the test with H4 is 9.69 µM (active); in test [5], 1.06 µM (active); in test [6] it was 7.4 µM (active).
For `Cc1cccn2c(=O)c3cc(C(=O)NCc4ccco4)c(=N)n(C(C)C)c3nc12`, the EC50 is 45.5 µM (active) in [3] and 40.5 µM (active) in [4].
In the same order, the values of `Cc1cc(C=C2C(=O)c3ccccc3C2=O)c(C)n1-c1ccc(Cl)cc1` are > 300 µM (not active) and > 300 µM (not active).
`CC1(C)CC(=O)C2=C(C1)OC(N)=C(C#N)C2c1cc2c(cc1[N+](=O)[O-])OCO2` (stereo not given): the results for the EC50 in test [3], in test [4] and in test [2] were 14.3 µM (active), 18 µM (active) and 5.48 µM (active), respectively.
Regarding `Cc1cc(S(=O)(=O)Nc2ccc(N(C)C)cc2)c(C)s1`, in [7], the half-maximal activity concentration (AC50) was 0.704 µM (active).
Turning to `Cn1c2ccccc2c2ncn(CCC3=CCCCC3)c(=O)c21`, the EC50 with H4 was 29.8 µM (active); in test [5], 21.7 µM (active); in [6] it was 24 µM (active).
In the case of `Cc1cc(C)cc(N2C(=O)CSC2c2ccccn2)c1` (stereo not given), the AC50 in test [7] was 0.731 µM (active).
On to `Cc1cccn2c(=O)c(C=O)c(Nc3ccc(S(N)(=O)=O)cc3)nc12`, for which the figures for the EC50 (in the test with H4; in test [5]; in test [6]) were > 120 µM (not active), 26.4 µM (active) and 14.8 µM (active), respectively.
In the same order, the values of `O=C(CSCC(=O)N1CCCCC1)Nc1nc(-c2ccc(Cl)s2)cs1` are 10.9 µM (active), 8.35 µM (active) and 29.7 µM (active).
In the case of `CCN(CC)c1ccc(CN2CCC(C(=O)NCc3ccc(C)cc3)CC2)cc1`, in [7], the AC50 was 5.7 µM (active).
In the case of `O=C(Nc1nc(-c2ccccc2)ns1)c1cccs1`, the AC50 in test [7] was 81 µM (active). Besides, the EC50 in the test on H4 is > 120 µM (not active); in test [5] it was 1.32 µM (active).
For the compound `ClCc1nc2ccccc2n1Cc1ccccc1`, the EC50 in test [3] was 3.93 µM (inconclusive); in test [4] it was 2.24 µM (inconclusive).
Consider `O=C(Cn1cc(C=C2C(=O)NC(=O)NC2=O)c2ccccc21)NCC1CCCO1` (stereo not given), for which the EC50 in test [3] was 10.1 µM (active); in [4], 16.7 µM (active).
With `Cc1ccc(-n2nnnc2SCC(=O)Nc2sc(C)c(C)c2C#N)cc1C`, the EC50 in the test on H4 is > 120 µM (not active); in test [5] it was 15.6 µM (active); in test [6], 15.9 µM (active).
Consider `Fc1ccc(Nc2c3c(nc4ccccc24)CCC3)cc1`, for which the half-maximal activity concentration (AC50) in [7] was 6.31 µM (active). For the same compound, the EC50 is > 60 µM (inconclusive) in test [8] and 2.48 µM (active) in test [9].
Regarding `CCN(CC)S(=O)(=O)c1ccc(/N=N/c2c(C)[nH]n(C(N)=S)c2=O)cc1`, in test [7], the AC50 was 0.782 µM (active).
Still for that read-out and setting: for `COc1ccc(N2C(=O)CSC2c2ccccc2[N+](=O)[O-])cc1` (stereo not given) the value was 4.55 µM (active).
With `CCC(=O)Nc1cc(C)c(NC(=O)CCc2ccccc2)cn1`, the results for the EC50 in [3] and in test [4] were 26 µM (inconclusive) and 24 µM (active), respectively.
In the case of `CC(C)(C)C(=O)N1CCN(c2nc3ccc(Cl)cc3s2)CC1`, the results for the EC50 (with H4; in [5]; in [6]) were 15.2 µM (active), 0.244 µM (active) and 0.369 µM (active), respectively.
For `CC1CCC2C(C1)Nc1c(C(=O)O)cccc1C2(C)C` (stereo not given), in test [7], the AC50 is 4.55 µM (active).
Regarding `COc1cc(/C=N/NC(=O)c2cccc(N3CCCC3=O)c2)ccc1O`, in test [7], the AC50 was 2.71 µM (active). The IC50 in test [10] is 30.9 µM (active).
As for `Cc1cc(NC(=O)C(C)C)ncc1NC(=O)CCc1ccccc1`, the EC50 in test [2] was > 53 µM (inactive).
As to `O=C(N/N=C\c1ccc(-c2ccc(Cl)c(Cl)c2)o1)C(=O)N1CCCC1`, the EC50 in [3] is 29.6 µM (active); in test [4] it was 49.5 µM (active).
